Reference: patent publication US7811997B2, “Composition containing total triterpenoid sapogenins extracted from bamboo, and the preparation method and use thereof” (priority 2002, dated 2010)
Read-outs that look alike come from different tables or passages of the source.

Experiments:
Type in all cases: cell-based
[1] = test system: A375 (human malanoma); experiment: MTT proliferation inhibition, A375 cells; conditions: A375 cell; for inhibition at 7.5 µM / inhibition at 15 µM / inhibition at 30 µM / inhibition at 60 µM / inhibition at 120 µM / inhibition at 240 µM / inhibition at 480 µM / inhibition at 960 µM / IC50: Homo sapiens; for inhibition at 7.5 µM: 7.5 μmol/L; for inhibition at 7.5 µM / inhibition at 15 µM / inhibition at 30 µM / inhibition at 60 µM / inhibition at 120 µM / inhibition at 240 µM / inhibition at 480 µM / inhibition at 960 µM: read-out: Inhibitory rate (%); for inhibition at 15 µM: 15 μmol/L; for inhibition at 30 µM: 30 μmol/L; for inhibition at 60 µM: 60 μmol/L; for inhibition at 240 µM: 240 μmol/L; for inhibition at 480 µM: 480 μmol/L; for inhibition at 960 µM: 960 μmol/L; for IC50: A-375, MTT, Bliss method
From the text: (§1) The Silica Gel Column Chromatography and Countercurrent Chromatography preparation techniques were used to obtain Friedelin monomer extracted from EZR2002 for the sake of evaluating its anti-tumor activity further. The purity of this monomer determined by GC-MS analysis was 90.5%.
(§2) A375 (human malanoma), L929 (mouse lung epithelial tumor), Hela (human cervical tumor) and THP-1 (human macrophage tumor) cell lines were used for active filtration test in this experiment. Among these cell lines, A375, L929 and Hela were adherent cells while THP-1 was a kind of suspended cell.
(§3) All cells were maintained in the RPMI-1640 culture medium supplemented with 10% fetal calf serum, penicillin (100 U/mL), streptomycin (100 μg/mL) and 0.2% NaHCO3. These supplements were dissolved in deionized water and 0.22 μm filtration membrane was used for filter sterilization. The fetal calf serum was inactivated 30 min at 56° C. prior to an experiment. Cells were cultured in a humidified incubator of 5% CO2 at 37° C.
(§4) A375, L929 and Hela cells in logarithmic growth phases were seeded at a cell density of approximately 5×10^4 cells/mL in 96 pore plates (100 μL/well). Furthermore, THP-1 cell was seeded at a cell density of approximately 1×10^5 cells/mL because it was smaller than others. Samples were added in suspended cells after culturing 4 h and in adherent cells after culturing 12 h. Friedelin was dissolved in DMSO in advance and then in the culture medium with the ultrasonic treatment, where the final concentration of the solvent in the culture medium was <0.1% (v/v). Sample was added for 7.5, 15, 30, 60, 120, 240, 480 and 960 μmol/L. Each level had four parallel pores and a negative control. The cells were incubated for 24 and 48 h and then 15 μL/well MTT solvent (5 mg/mL) was added.
(§5) The cells were incubated for 48 h, followed by centrifugation at 1500 rpm for 5 min. The supernatant was removed and 150 μL/well DMSO was added, followed by micro-vibrator shocking for 10 min and crystal dissolving completely. The absorbance (OD value) was measured by enzyme-labeled meter at 492 nm. Furthermore, the inhibitory rate of cell proliferation and the IC50 value of friedelin were counted by using Bliss method.
(§6) The de-methyl-cantharidin was taken as the positive control and the inhibitory rate of A375, L929 and Hela cells were measured by adding de-methyl-cantharidin (120 μmol/L) for 24 and 48 h (Table 8). Furthermore, the corresponding data of Friedelin were counted.

[2] = test system: L929 (mouse lung epithelial tumor); experiment: MTT proliferation inhibition, L929 cells; conditions: L929 cell; for Inhibitory rate (%) / inhibition at 120 µM: 120 μmol/L; for inhibition at 7.5 µM / inhibition at 15 µM / inhibition at 30 µM / inhibition at 60 µM / inhibition at 120 µM / inhibition at 240 µM / inhibition at 480 µM / inhibition at 960 µM / IC50: Mus musculus; for inhibition at 7.5 µM: 7.5 μmol/L; for inhibition at 7.5 µM / inhibition at 15 µM / inhibition at 30 µM / inhibition at 60 µM / inhibition at 120 µM / inhibition at 240 µM / inhibition at 480 µM / inhibition at 960 µM: read-out: Inhibitory rate (%); for inhibition at 15 µM: 15 μmol/L; for inhibition at 30 µM: 30 μmol/L; for inhibition at 60 µM: 60 μmol/L; for inhibition at 240 µM: 240 μmol/L; for inhibition at 480 µM: 480 μmol/L; for inhibition at 960 µM: 960 μmol/L; for IC50: MTT, Bliss method
From the text: as §1, §2, §3, §4, §5, §6

[3] = test system: Hela (human cervical tumor); experiment: MTT proliferation inhibition, Hela cells; conditions: Hela cell; for Inhibitory rate (%) / inhibition at 120 µM: 120 μmol/L; for inhibition at 7.5 µM / inhibition at 15 µM / inhibition at 30 µM / inhibition at 60 µM / inhibition at 120 µM / inhibition at 240 µM / inhibition at 480 µM / inhibition at 960 µM / IC50: Homo sapiens; for inhibition at 7.5 µM / inhibition at 15 µM / inhibition at 30 µM / inhibition at 60 µM / inhibition at 120 µM / inhibition at 240 µM / inhibition at 480 µM / inhibition at 960 µM: HeLa, read-out: Inhibitory rate (%); for inhibition at 7.5 µM: 7.5 μmol/L; for inhibition at 15 µM: 15 μmol/L; for inhibition at 30 µM: 30 μmol/L; for inhibition at 60 µM: 60 μmol/L; for inhibition at 240 µM: 240 μmol/L; for inhibition at 480 µM: 480 μmol/L; for inhibition at 960 µM: 960 μmol/L; for IC50: MTT, Bliss method
From the text: as §1, §2, §3, §4, §5, §6

[4] = test system: THP-1 (human macrophage tumor); experiment: MTT proliferation inhibition, THP-1 cells; conditions: THP-1 cell; for inhibition at 7.5 µM: 7.5 μmol/L; for inhibition at 7.5 µM / inhibition at 15 µM / inhibition at 30 µM / inhibition at 60 µM / inhibition at 120 µM / inhibition at 240 µM / inhibition at 480 µM / inhibition at 960 µM: read-out: Inhibitory rate (%); for inhibition at 15 µM: 15 μmol/L; for inhibition at 30 µM: 30 μmol/L; for inhibition at 60 µM: 60 μmol/L; for inhibition at 120 µM: 120 μmol/L; for inhibition at 240 µM: 240 μmol/L; for inhibition at 480 µM: 480 μmol/L; for inhibition at 960 µM: 960 μmol/L; for IC50: MTT, Bliss method
From the text: as §1, §2, §3, §4, §5

IC50 ([1]; 24 h): 357 µM
IC50 ([1]; 48 h): 61.5 µM
IC50 ([3]; 24 h): 61.2 µM
IC50 ([3]; 48 h): 64.7 µM
IC50 ([4]; 24 h): 85.1 µM
IC50 ([4]; 48 h): 58 µM
SMILES: C[C@H]1C(=O)CC[C@@H]2[C@]1(C)CC[C@H]1[C@@]2(C)CC[C@@]2(C)[C@@H]3CC(C)(C)CC[C@]3(C)CC[C@]12C [Friedelin, friedelin]
Inhibitory rate (%) ([1]; 48 h, 120 μmol/L): 88.6%
inhibition at 7.5 µM ([1]; A-375, 24 h, 24 h): 0%
inhibition at 15 µM ([1]; A-375, 24 h, 24 h): 6.43%
inhibition at 30 µM ([1]; A-375, 24 h, 24 h): 0.43%
inhibition at 60 µM ([1]; A-375, 24 h, 24 h): 14.1%
inhibition at 120 µM ([1]; A-375, 24 h, 24 h, 120 μmol/L): 36.7%
inhibition at 240 µM ([1]; A-375, 24 h, 24 h): 44.8%
inhibition at 480 µM ([1]; A-375, 24 h, 24 h): 63.3%
inhibition at 960 µM ([1]; A-375, 24 h, 24 h): 60.4%
inhibition at 7.5 µM ([1]; A-375, 48 h, 48 h): 0.51%
inhibition at 15 µM ([1]; A-375, 48 h, 48 h): 6.29%
inhibition at 30 µM ([1]; A-375, 48 h, 48 h): 17.2%
inhibition at 60 µM ([1]; A-375, 48 h, 48 h): 44.4%
inhibition at 120 µM ([1]; A-375, 48 h, 48 h, 120 μmol/L): 88.6%
inhibition at 240 µM ([1]; A-375, 48 h, 48 h): 100%
inhibition at 480 µM ([1]; A-375, 48 h, 48 h): 96.1%
inhibition at 960 µM ([1]; A-375, 48 h, 48 h): 89.8%
Inhibitory rate (%) ([2]; 24 h): 37.6%
Inhibitory rate (%) ([2]; 48 h): 81.1%
inhibition at 7.5 µM ([2]; L929, 24 h, 24 h): 5.42%
inhibition at 15 µM ([2]; L929, 24 h, 24 h): 10.4%
inhibition at 30 µM ([2]; L929, 24 h, 24 h): 13.2%
inhibition at 60 µM ([2]; L929, 24 h, 24 h): 22.7%
inhibition at 120 µM ([2]; L929, 24 h, 24 h): 37.6%
inhibition at 240 µM ([2]; L929, 24 h, 24 h): 52.3%
inhibition at 480 µM ([2]; L929, 24 h, 24 h): 48.1%
inhibition at 960 µM ([2]; L929, 24 h, 24 h): 38.9%
inhibition at 7.5 µM ([2]; L929, 48 h, 48 h): 17.3%
inhibition at 15 µM ([2]; L929, 48 h, 48 h): 21.6%
inhibition at 30 µM ([2]; L929, 48 h, 48 h): 38.8%
inhibition at 60 µM ([2]; L929, 48 h, 48 h): 66.8%
inhibition at 120 µM ([2]; L929, 48 h, 48 h): 81.1%
inhibition at 240 µM ([2]; L929, 48 h, 48 h): 99.5%
inhibition at 480 µM ([2]; L929, 48 h, 48 h): 98.2%
inhibition at 960 µM ([2]; L929, 48 h, 48 h): 89.9%
IC50 ([2]; 24 h): 665 µM
IC50 ([2]; 48 h): 36.9 µM
Inhibitory rate (%) ([3]; 24 h): 71.6%
Inhibitory rate (%) ([3]; 48 h): 86.0%
inhibition at 7.5 µM ([3]; 24 h, 24 h): 35%
inhibition at 15 µM ([3]; 24 h, 24 h): 34.7%
inhibition at 30 µM ([3]; 24 h, 24 h): 33.3%
inhibition at 60 µM ([3]; 24 h, 24 h): 43.4%
inhibition at 120 µM ([3]; 24 h, 24 h): 71.6%
inhibition at 240 µM ([3]; 24 h, 24 h): 88.2%
inhibition at 480 µM ([3]; 24 h, 24 h): 88.1%
inhibition at 960 µM ([3]; 24 h, 24 h): 73.8%
inhibition at 7.5 µM ([3]; 48 h, 48 h): 20%
inhibition at 15 µM ([3]; 48 h, 48 h): 17.2%
inhibition at 30 µM ([3]; 48 h, 48 h): 24.6%
inhibition at 60 µM ([3]; 48 h, 48 h): 41.4%
inhibition at 120 µM ([3]; 48 h, 48 h): 86%
inhibition at 240 µM ([3]; 48 h, 48 h): 99.5%
inhibition at 480 µM ([3]; 48 h, 48 h): 98%
inhibition at 960 µM ([3]; 48 h, 48 h): 92%
inhibition at 7.5 µM ([4]; 24 h): 4.89%
inhibition at 15 µM ([4]; 24 h): 0%
inhibition at 30 µM ([4]; 24 h): 3.04%
inhibition at 60 µM ([4]; 24 h): 45.2%
inhibition at 120 µM ([4]; 24 h): 58.8%
inhibition at 240 µM ([4]; 24 h): 68.5%
inhibition at 480 µM ([4]; 24 h): 74.1%
inhibition at 960 µM ([4]; 24 h): 70.8%
inhibition at 7.5 µM ([4]; 48 h): 8.6%
inhibition at 15 µM ([4]; 48 h): 0%
inhibition at 30 µM ([4]; 48 h): 7.57%
inhibition at 60 µM ([4]; 48 h): 52.6%
inhibition at 120 µM ([4]; 48 h): 77.3%
inhibition at 240 µM ([4]; 48 h): 95%
inhibition at 480 µM ([4]; 48 h): 92.9%
inhibition at 960 µM ([4]; 48 h): 82.5%
